Experimental data reported in BindingDB's records for doi:10.1038/nchembio.481 (CGI Pharmaceuticals, 2011).

Target: Tyrosine-protein kinase BTK (Homo sapiens, UniProt Q06187)
Assay: Btk Kinase Assay
Details: pH 7.5; 23 °C
From the text: Biochemical assay using Lanthascreen (human, full-lenght, C-terminal v5-His6 expressed in Sf9 cell) assay from Invitrogen.

Chain of Tyrosine-protein kinase BTK (Q06187 whole entry): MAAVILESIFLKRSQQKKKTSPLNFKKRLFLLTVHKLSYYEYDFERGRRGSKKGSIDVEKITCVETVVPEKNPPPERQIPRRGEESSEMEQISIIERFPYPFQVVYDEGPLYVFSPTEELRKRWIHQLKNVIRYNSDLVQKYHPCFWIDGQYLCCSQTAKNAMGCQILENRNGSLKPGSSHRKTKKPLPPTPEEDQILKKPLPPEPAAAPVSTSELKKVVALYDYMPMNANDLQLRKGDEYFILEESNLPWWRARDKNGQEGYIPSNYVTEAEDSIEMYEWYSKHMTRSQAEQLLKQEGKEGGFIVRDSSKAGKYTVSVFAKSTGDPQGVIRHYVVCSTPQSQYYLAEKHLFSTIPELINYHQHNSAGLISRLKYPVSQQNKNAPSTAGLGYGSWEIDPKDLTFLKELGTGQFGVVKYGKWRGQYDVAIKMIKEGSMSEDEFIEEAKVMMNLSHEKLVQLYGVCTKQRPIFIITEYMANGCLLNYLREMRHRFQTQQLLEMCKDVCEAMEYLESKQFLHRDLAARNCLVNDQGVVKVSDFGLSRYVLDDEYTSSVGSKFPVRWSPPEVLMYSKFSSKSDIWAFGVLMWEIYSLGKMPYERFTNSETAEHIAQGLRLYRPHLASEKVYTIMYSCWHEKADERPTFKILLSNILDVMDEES

| Structure (SMILES) | IC50 |
| --- | --- |
| Cc1c(NC(=O)c2cccc(C(C)(C)C)c2)cccc1-c1cn(C)c(=O)c(Nc2ccc(C(=O)N3CCOCC3)cc2)n1 [3-(tert-Butyl)-N-(2-methyl-3-(4-methyl-6-((4-(morpholine-4-carbonyl)phenyl)amino)-5-oxo-4,5-dihydropyrazin-2-yl)phenyl)benzamide, 6] | 3.14 µM |
| Cc1c(NC(=O)c2ccc(C(C)(C)C)nc2)cccc1-c1cn(C)c(=O)c(Nc2ccc(C(=O)N3CCOCC3)cc2)n1 [6-(tert-Butyl)-N-(2-methyl-3-(4-methyl-6-((4-(morpholine-4-carbonyl)phenyl)amino)-5-oxo-4,5-dihydropyrazin-2-yl)phenyl)nicotinamide, 7] | 0.65 µM |

The remaining molecules from weak to strong by IC50, led by results:

| IC50 | Structure (SMILES) |
| --- | --- |
| 9.06 µM | Cc1c(NCc2ccc(C(C)(C)C)cc2)cccc1-c1cn(C)c(=O)c(Nc2ccc(C(=O)N3CCOCC3)cc2)n1 [5-(3-((4-(tert-Butyl)benzyl)amino)-2-methylphenyl)-1-methyl-3-((4-(morpholine-4-carbonyl)phenyl)amino)pyrazin-2(1H)-one, 5] |
| 5.44 µM | Cc1c(N)cccc1-c1cn(C)c(=O)c(Nc2ccc(C(=O)N3CCOCC3)cc2)n1 [5-(3-Amino-2-methylphenyl)-1-methyl-3-((4-(morpholine-4-carbonyl)phenyl)amino)pyrazin-2(1H)-one, 3] |
| 2.69 µM | CC(=O)Nc1cccc(-c2cn(C)c(=O)c(Nc3ccc(C(=O)N4CCOCC4)cc3)n2)c1C [CID46942382] |
